Data on 13 molecules can be found in patent US12091426B2, “Bifunctional degraders of hematopoietic progenitor kinase and therapeutic uses thereof” (Nurix Therapeutics, Inc., priority 2021, dated 2024).

The assay has as its target T1, HPK1 (Homo sapiens, UniProt Q92918).
T1 construct: A HiBiT tag was introduced by CRISPR on the N terminus of HPK1 in Jurkat cells; host or cells: Jurkat cells (ATCC TIB-152), monoclonal line with CRISPR knock-in of HiBiT at the endogenous HPK1 locus
Briefly: HPK1 Cellular HiBit Degradation Assay. It counts as cell-based. The conditions noted are these: HiBiT HPK1 Jurkat cells, 24 hrs; for DC50: concentration at which 50% of HPK1 was remaining, read-out: DC50 Category; for Dmax: Jurkat, maximum degradation vs DMSO vehicle control, read-out: Dmax Category. An outline of the steps:
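Degraders are dosed in an 11-point series (10 uM to 0.1 nM final) onto Jurkat cells carrying an N-terminal HiBiT tag on endogenous HPK1. After 24 hrs at 37° C, lysis-based HiBiT luminescence quantifies remaining HPK1 relative to vehicle, and curve fitting gives DC50 and Dmax.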
(HiBiT is a short tag that completes a luciferase, so light tracks the accessible tagged protein.)

T1 sequence (Q92918 whole entry): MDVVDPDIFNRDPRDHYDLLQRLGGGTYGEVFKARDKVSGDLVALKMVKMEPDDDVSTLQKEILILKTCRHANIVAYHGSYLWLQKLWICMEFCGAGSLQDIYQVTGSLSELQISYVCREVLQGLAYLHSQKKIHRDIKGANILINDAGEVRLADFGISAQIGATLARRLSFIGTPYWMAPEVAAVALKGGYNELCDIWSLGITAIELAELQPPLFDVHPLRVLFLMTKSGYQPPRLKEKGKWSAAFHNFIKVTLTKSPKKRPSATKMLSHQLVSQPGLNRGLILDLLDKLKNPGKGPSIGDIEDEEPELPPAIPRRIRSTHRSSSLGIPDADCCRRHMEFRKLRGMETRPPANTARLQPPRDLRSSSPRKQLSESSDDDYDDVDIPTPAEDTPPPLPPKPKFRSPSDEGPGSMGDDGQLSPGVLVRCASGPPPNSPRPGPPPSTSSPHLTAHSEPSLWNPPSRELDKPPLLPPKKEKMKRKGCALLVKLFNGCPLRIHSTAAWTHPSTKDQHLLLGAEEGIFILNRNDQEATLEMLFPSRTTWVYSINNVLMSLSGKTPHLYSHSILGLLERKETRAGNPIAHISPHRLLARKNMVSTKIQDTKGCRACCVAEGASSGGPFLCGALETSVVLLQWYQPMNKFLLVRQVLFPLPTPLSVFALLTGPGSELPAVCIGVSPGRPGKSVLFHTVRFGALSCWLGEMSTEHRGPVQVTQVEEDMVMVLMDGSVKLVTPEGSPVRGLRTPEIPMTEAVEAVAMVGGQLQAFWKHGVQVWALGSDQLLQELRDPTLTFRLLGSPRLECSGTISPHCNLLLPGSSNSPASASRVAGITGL

With `CC(C)n1cnc2cc(-c3ccc4c(c3)N([C@H]3C[C@@H](N5CCCCC5)C3)C(=O)C43CCN(C(=O)C4CCN(C(=O)[C@H]5CC[C@H](Oc6ccc(C7CCC(=O)NC7=O)cc6)CC5)CC4)CC3)nc(NC3CC3)c21` (mixture of isomers) [Example 59, (3RS)-3-(4-{[(1R,4R)-4-[4-({6-[4-(cyclopropylamino)-3-(propan-2-yl)-3H-imidazo[4,5-c]pyridin-6-yl]-2-oxo-1-[(1S,3S)-3-(piperidin-1-yl)cyclobutyl]-1,2-dihydrospiro[indole-3,4′-piperidin]-1′-yl}carbonyl)piperidine-1-carbonyl]cyclohexyl]oxy}phenyl)piperidine-2,6-dione], the DC50 (in general, the midpoint of the concentration-degradation curve) was less than 100 nM and the Dmax (commonly the largest share of the target that was removed) was 50 to 70%.
Taken in the same sequence, the figures for `CC(C)n1cnc2cc(-c3ccc4c(c3)N([C@H]3C[C@@H](N5CCCCC5)C3)C(=O)C43CCN(C(=O)C4(C)CCN(C(=O)C5CCN(c6ccc(C7CCC(=O)NC7=O)cc6F)CC5)CC4)CC3)nc(NC3CC3)c21` (mixture of isomers) [Example 152, (3RS)-3-(4-{4-[4-({6-[4-(cyclopropylamino)-3-isopropylimidazo[4,5-c]pyridin-6-yl]-2-oxo-1-[(1S,3S)-3-(piperidin-1-yl)cyclobutyl]spiro[indole-3,4′-piperidin]-1′-yl}carbonyl)-4-methylpiperidine-1-carbonyl]piperidin-1-yl}-3-Fluorophenyl)piperidine-2,6-dione] were less than 100 nM and 70 to 85%.
Taken in the same sequence, the figures for `CC(C)n1cnc2cc(-c3ccc4c(c3)N([C@H]3C[C@@H](N5CCCCC5)C3)C(=O)C43CCN(C(=O)C4CCN(C(=O)[C@H]5CC[C@H](N(C)c6ccc(C7CCC(=O)NC7=O)cn6)CC5)CC4)CC3)nc(Nc3ccncc3F)c21` (mixture of isomers) [Example 132, (3RS)-3-(6-{methyl[(1R,4R)-4-{4-[(6-{4-[(3-Fluoropyridin-4-yl)amino]-3-(propan-2-yl)-3H-imidazo[4,5-c]pyridin-6-yl}-2-oxo-1-[(1S,3S)-3-(piperidin-1-yl)cyclobutyl]-1,2-dihydrospiro[indole-3,4′-piperidin]-1′-yl)carbonyl]piperidine-1-carbonyl}cyclohexyl]amino}pyridin-3-yl)piperidine-2,6-dione] were less than 100 nM and 50 to 70%.
For `CC(C)n1cnc2cc(-c3ccc4c(c3)N([C@H]3C[C@@H](N5CCCCC5)C3)C(=O)C43CCN(C(=O)[C@]4(C)CCN(C(=O)[C@H]5CC[C@H](Oc6ccc(C7CCC(=O)NC7=O)cn6)CC5)C4)CC3)nc(NC3CC3)c21` (stereo partly drawn) [Example 163, 3-(6-(((1R,4R)-4-((R)-3-(6-(4-(cyclopropylamino)-3-isopropyl-3H-imidazo[4,5-c]pyridin-6-yl)-2-oxo-1-((1S,3S)-3-(piperidin-1-yl)cyclobutyl)spiro[indoline-3,4′-piperidine]-1′-carbonyl)-3-methylpyrrolidine-1-carbonyl)cyclohexyl)oxy)pyridin-3-yl)piperidine-2,6-dione], the DC50 was 100 to 500 nM and the Dmax is more than 85%.
On the same counts, the results for `CC(C)n1cnc2cc(-c3ccc4c(c3)N([C@H]3C[C@@H](N5CCCCC5)C3)C(=O)C43CCN(C(=O)C45CC(CN(C(=O)C6CCN(c7ccc(C8CCC(=O)NC8=O)cn7)CC6)C4)C5)CC3)nc(NC3CC3)c21` (mixture of isomers) [Example 271, (3RS)-3-(6-{4-[1-({6-[4-(cyclopropylamino)-3-(propan-2-yl)-3H-imidazo[4,5-c]pyridin-6-yl]-2-oxo-1-[(1S,3S)-3-(piperidin-1-yl)cyclobutyl]-1,2-dihydrospiro[indole-3,4′-piperidin]-1′-yl}carbonyl)-3-azabicyclo[3.1.1]heptane-3-carbonyl]piperidin-1-yl}pyridin-3-yl)piperidine-2,6-dione] are less than 100 nM and 70 to 85%.
Taken in the same sequence, the figures for `CC(C)n1cnc2cc(-c3ccc4c(c3)N([C@H]3C[C@@H](N5CCCCC5)C3)C(=O)C43CCN(C(=O)C4CCN(C(=O)[C@H]5CC[C@H](Nc6cncc(C7CCC(=O)NC7=O)c6)CC5)CC4)CC3)nc(Nc3ccccc3F)c21` (mixture of isomers) [Example 58, (3RS)-3-(5-{[(1R,4R)-4-{4-[(6-{4-[(2-fluorophenyl)amino]-3-(propan-2-yl)-3H-imidazo[4,5-c]pyridin-6-yl}-2-oxo-1-[(1S,3S)-3-(piperidin-1-yl)cyclobutyl]-1,2-dihydrospiro[indole-3,4′-piperidin]-1′-yl)carbonyl]piperidine-1-carbonyl}cyclohexyl]amino}pyridin-3-yl)piperidine-2,6-dione] were 100 to 500 nM and 50 to 70%.
Taken in the same sequence, the figures for `CC(C)n1cnc2cc(-c3ccc4c(c3)N([C@H]3C[C@@H](N5CCCCC5)C3)C(=O)C43CCN(C(=O)[C@@H]4CCN(C(=O)[C@H]5CC[C@H](Oc6ccc(N7CCC(=O)NC7=O)cn6)CC5)C4)CC3)nc(NC3CC3)c21` [Example 20, 1-(6-{[(1R,4R)-4-[(3R)-3-({6-[4-(cyclopropylamino)-3-(propan-2-yl)-3H-imidazo[4,5-c]pyridin-6-yl]-2-oxo-1-[(1S,3S)-3-(piperidin-1-yl)cyclobutyl]-1,2-dihydrospiro[indole-3,4′-piperidin]-1′-yl}carbonyl)pyrrolidine-1-carbonyl]cyclohexyl]oxy}pyridin-3-yl)-1,3-diazinane-2,4-dione] were less than 100 nM and 70 to 85%.
As for `CC(C)n1cnc2cc(-c3ccc4c(c3)N([C@H]3C[C@@H](N5CC6CCC(C6)C5)C3)C(=O)C43CCN(C(=O)C4(C)CCN(C(=O)CC5CCN(c6ccc(C7CCC(=O)NC7=O)cn6)CC5)CC4)CC3)nc(NC3CC3)c21` (mixture of isomers) [Example 223, (3RS)-3-[6-(4-{2-[4-({6-[4-(cyclopropylamino)-3-(propan-2-yl)-3H-imidazo[4,5-c]pyridin-6-yl]-2-oxo-1-[(1S,3S)-3-{3-azabicyclo[3.2.1]octan-3-yl}cyclobutyl]-1,2-dihydrospiro[indole-3,4′-piperidin]-1′-yl}carbonyl)-4-methylpiperidin-1-yl]-2-oxoethyl}piperidin-1-yl)pyridin-3-yl]piperidine-2,6-dione], the half-maximal degradation concentration (DC50) was less than 100 nM and the Dmax lay within 70 to 85%.
On the same counts, the results for `CC(C)n1cnc2cc(-c3ccc4c(c3)N([C@H]3C[C@@H](N5CCCCC5)C3)C(=O)C43CCN(C(=O)C4CCN(C(=O)[C@H]5CC[C@H](Cn6cc7cc(C8CCC(=O)NC8=O)ccc7n6)CC5)CC4)CC3)nc(Nc3ccccc3F)c21` (mixture of isomers) [Example 63, (3RS)-3-(2-{[(1R,4R)-4-{4-[(6-{4-[(2-fluorophenyl)amino]-3-(propan-2-yl)-3H-imidazo[4,5-c]pyridin-6-yl}-2-oxo-1-[(1S,3S)-3-(piperidin-1-yl)cyclobutyl]-1,2-dihydrospiro[indole-3,4′-piperidin]-1′-yl)carbonyl]piperidine-1-carbonyl}cyclohexyl]methyl}-2H-indazol-5-yl)piperidine-2,6-dione] are less than 100 nM and 50 to 70%.
On to `CC(C)n1cnc2cc(-c3ccc4c(c3)N([C@H]3C[C@@H](N5CCCCC5)C3)C(=O)C43CCN(C(=O)C4CCN(C(=O)N5CCC(c6ccc(C7CCC(=O)NC7=O)cn6)CC5)CC4)CC3)nc(Nc3ccccc3F)c21` (mixture of isomers) [Example 97, (3RS)-3-[6-(1-{4-[(6-{4-[(2-fluorophenyl)amino]-3-(propan-2-yl)-3H-imidazo[4,5-c]pyridin-6-yl}-2-oxo-1-[(1S,3S)-3-(piperidin-1-yl)cyclobutyl]-1,2-dihydrospiro[indole-3,4′-piperidin]-1′-yl)carbonyl]piperidine-1-carbonyl}piperidin-4-yl)pyridin-3-yl]piperidine-2,6-dione], for which the DC50 fell in the range of 500 to 1000 nM and the greatest degradation seen (Dmax) is 50 to 70%.
Take `CC(C)n1cnc2cc(-c3ccc4c(c3)N([C@H]3C[C@@H](N5CCCCC5)C3)C(=O)C43CCN(C(=O)C4CCN(C(=O)CN5CCN(c6ccc(C7CCC(=O)NC7=O)cn6)CC5)CC4)CC3)nc(Nc3ccncc3F)c21` (mixture of isomers) [Example 96, (3RS)-3-{6-[4-(2-{4-[(6-{4-[(3-fluoropyridin-4-yl)amino]-3-(propan-2-yl)-3H-imidazo[4,5-c]pyridin-6-yl}-2-oxo-1-[(1S,3S)-3-(piperidin-1-yl)cyclobutyl]-1,2-dihydrospiro[indole-3,4′-piperidin]-1′-yl)carbonyl]piperidin-1-yl}-2-oxoethyl)piperazin-1-yl]pyridin-3-yl}piperidine-2,6-dione]: the DC50 is 100 to 500 nM and the Dmax lay within 70 to 85%.
With `CC(C)n1cnc2cc(-c3ccc4c(c3)N([C@H]3C[C@@H](N5CCCCC5)C3)C(=O)C43CCN(C(=O)C4(C)CCN(C(=O)C5CCN(c6ccc(C7CCC(=O)NC7=O)nn6)CC5)CC4)CC3)nc(NC3CC3)c21` (mixture of isomers) [Example 209, (3RS)-3-(6-{4-[4-({6-[4-(cyclopropylamino)-3-(propan-2-yl)-3H-imidazo[4,5-c]pyridin-6-yl]-2-oxo-1-[(1S,3S)-3-(piperidin-1-yl)cyclobutyl]-1,2-dihydrospiro[indole-3,4′-piperidin]-1′-yl}carbonyl)-4-methylpiperidine-1-carbonyl]piperidin-1-yl}pyridazin-3-yl)piperidine-2,6-dione], the 50% degradation concentration (DC50) was less than 100 nM and the Dmax lay in the range of 70 to 85%.
Taken in the same sequence, the figures for `CC(C)n1cnc2cc(-c3ccc4c(c3)N([C@H]3C[C@@H](N5CCCCC5)C3)C(=O)C43CCN(C(=O)C[C@@H]4CCCN(C(=O)C5CCN(c6ccc(C7CCC(=O)NC7=O)cn6)CC5)C4)CC3)nc(NC3CC3)c21` (mixture of isomers) [Example 298, (3RS)-3-(6-{4-[(3S)-3-(2-{6-[4-(cyclopropylamino)-3-(propan-2-yl)-3H-imidazo[4,5-c]pyridin-6-yl]-2-oxo-1-[(1S,3S)-3-(piperidin-1-yl)cyclobutyl]-1,2-dihydrospiro[indole-3,4′-piperidin]-1′-yl}-2-oxoethyl)piperidine-1-carbonyl]piperidin-1-yl}pyridin-3-yl)piperidine-2,6-dione] were 100 to 500 nM and 50 to 70%.
